Series [1] addresses T1, human GLP-1R (Homo sapiens, UniProt P43220). Kind of series: β-arrestin-2 recruitment (NanoBiT), HEK293, human GLP-1R. The series is classed as cell-based. As to conditions: HEK293, read-out: β-arrestin-2 % Emax. Details: expressed in transfected cells; host or cells: HEK293 (stably or transiently transfected). The method, then: (§1) β-arrestin recruitment was measured using Promega's NanoBiT technology and Nano-Glo® Live Cell Substrate in HEK293 cells. β-arrestin-2 recruitment was measured using Promega's NanoBiT technology and Nano-Glo® Live Cell Substrate (catalog number N2012), which uses the NanoLuc luciferase split into two subunits called LgBiT and SmBiT. HEK293 cells were either stably or transiently transfected with equal amounts of DNA plasmids expressing the fusion proteins human GLP-1R-LgBiT or GIPR-LgBiT and SmBiT-(human)-β-arrestin-2; similar methods were used for mouse GLP-1R, GIPR, and β-arrestin-2. […] The following day, the media was removed and replaced with 10 μL of a 1:100 dilution of Nano-Glo® Live Cell Substrate with NanoBiT buffer and OptiMem and equilibrated to room temperature for ten minutes covered. Background luminescence was measured before adding 100 nL of compound dilutions (made in a 1:1 ratio in DMSO). Compounds were transferred using an ECHO Acoustic Liquid Handler (Beckman Coulter) and luminescence was measured at 1.5-minute intervals for 15 minutes using an EnVision Multimode Plate Reader (PerkinElmer; Waltham, MA).
(§2) Each dilution series was normalized to the adjacent high (100%) and low (0%) wells on the plate. […]
(§3) and the Hillslope was constrained to 1. […] For NanoBiT assays, a single time point during the 30-minute activity measurements was selected for maximum luminescence response. […]
For orientation: Recruitment of arrestin is a read-out of receptor activation apart from second messengers.

In series [2] the target is T2, human GIPR (Homo sapiens, UniProt P48546).
T2 sequence (P48546 22-466): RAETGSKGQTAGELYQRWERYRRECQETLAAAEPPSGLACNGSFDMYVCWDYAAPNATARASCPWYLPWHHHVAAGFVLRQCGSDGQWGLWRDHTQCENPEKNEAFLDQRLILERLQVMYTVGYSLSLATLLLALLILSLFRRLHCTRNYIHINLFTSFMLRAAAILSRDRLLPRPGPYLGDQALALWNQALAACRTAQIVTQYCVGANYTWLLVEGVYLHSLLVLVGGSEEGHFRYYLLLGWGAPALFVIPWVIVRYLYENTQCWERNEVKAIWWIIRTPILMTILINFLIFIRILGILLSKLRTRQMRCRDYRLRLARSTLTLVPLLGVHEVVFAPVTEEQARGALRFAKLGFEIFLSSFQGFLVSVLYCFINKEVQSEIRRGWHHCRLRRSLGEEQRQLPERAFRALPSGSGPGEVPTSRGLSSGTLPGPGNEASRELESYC
Description: cAMP accumulation (HitHunter), CHO-K1 cells expressing SNAP-human GIPR. The series is classed as cell-based. Also on record: expressed in transfected cells. The procedure: (§4) cAMP production was measured using the HitHunter® cAMP Assay for Small Molecules kit in mammalian cell lines overexpressing either GLP-1R or GIPR. […] A total of 10,000 cells in 5 μL of media were added to each well of a 384-well, low-volume assay plate. For mouse receptor cAMP assays, either U2OS cells stably expressing mouse GLP-1R (DiscoverX 95-0179C3) or CHO-K1 cells stably expressing mouse GIPR (DiscoverX 95-0154C2) were used. Twenty-four hours before the assay, 5000-10,000 cells per well were plated in 384-well, low-volume tissue culture-treated plates in Assay Complete Cell Plating reagent 2 (murine GIPR cells) or 5 (murine GLP-1R cells). […] Compounds were diluted 1:1 in DMSO and 5 nL was transferred to the tissue-culture plate wells using an ECHO Acoustic Liquid Handler (Beckman Coulter).
(§5) Each dilution series was normalized to the adjacent high (100%) and low (0%) wells on the plate. Dose-response data were fitted to a curve using nonlinear regression analysis using the “log(agonist) vs response-variable slope” setting, where:
(§6) Y=Bottom+(Top−Bottom)/(1+10^((Log EC50−X)*HillSlope))
(§7) and the Hillslope was constrained to 1. Compound potency and efficacy were extracted from this regression analysis. […] For NanoBiT assays, a single time point during the 30-minute activity measurements was selected for maximum luminescence response. […]
(In general: Changes in cAMP serve as a functional read-out for many G protein-coupled receptors.)

Series [3] can be described thus: Phase 1 SAD: pharmacokinetics. Type of series: in vivo. As to conditions: human, serum; SAD Cohort 4 (6.0 mg) single SC dose; read-out: Vz/F (mean).
Description: PK parameters were also summarized using descriptive statistics (number of participants, mean, geometric mean, standard deviation, coefficient of variation, median, minimum, and maximum). In the SAD portion, the power model was used to assess dose proportionality.
Series [4] deals with T2, human GIPR. Kind of series: β-arrestin-2 recruitment (NanoBiT), HEK293, human GIPR. The series is classed as cell-based. Details: expressed in transfected cells; host or cells: HEK293 (stably or transiently transfected). The settings on record: HEK293, read-out: β-arrestin-2 % Emax. The procedure: as §1, §2, §3
Series [5] addresses T1, human GLP-1R. Description: cAMP accumulation (HitHunter), CHO-K1 cells expressing SNAP-human GLP-1R. The series is classed as cell-based. Details: expressed in transfected cells. The procedure:
as §4, §5, §6, §7

The target of series [6] is T1, human GLP-1R. Kind of series: Receptor internalization (Nano-Glo HiBiT), HEK293, human GLP-1R. The series is classed as cell-based. Also on record: expressed in transfected cells. The procedure:
Receptor internalization for human GLP-1R and GIPR was measured with Promega's Nano-Glo® HiBit extracellular detection system in HEK293 cells. Receptor internalization for human GLP-1R and GIPR was measured using the Promega Nano-Glo© HiBit extracellular detection system (Promega Corporation). HEK293 cells were transiently transfected with 1000:1 ratio of carrier plasmid (pcDNA3.1) and plasmids containing HiBiT-tagged human GLP-1R or human GIPR sequences (Promega Corporation). Cells were dissociated the following day using TrypLE express enzyme (ThermoFisher Scientific) and plated in 96-well plates at 80,000-100,000 cells per well. Forty-eight hours post-transfection, media was replaced with equal parts CO2 independent media (Gibco) and Nano-Glo extracellular buffer containing LgBiT protein (diluted 1:100), and Nano-Glo HiBiT extracellular substrate (diluted 1:50). After a 15-minute equilibration and background luminescence reading, test compounds were added and the luminescence was measured for 120 minutes at two-minute intervals using an EnVision Multimode Plate Reader (PerkinElmer).
as §7

The structures appear in SMILES notation. Starred links: 1 amine or outer side, 2 acyl side, 3 side chain; linkers in the order of their positions; H or OH if unused. Non-standard residues stand in square brackets, D forms with d. Residues, ends and D or L forms follow the SMILES beside them. Groups on a side chain read outwards from the residue. *: point of attachment. Isobutyryl(2-(3-CN-5-F-Ph)) = CC(C)(C(=O)*)c1cc(F)cc(C#N)c1; C20 diacid = O=C(O)CCCCCCCCCCCCCCCCCCC(=O)*; γGlu = O=C(O)[C@H](CCC(=O)[*:2])N[*:1]; AEEA = NCCOCCOCC(=O)O; Aib = CC(C)(N)C(=O)O; βAla = NCCC(=O)O

T1 sequence (P43220 24-463): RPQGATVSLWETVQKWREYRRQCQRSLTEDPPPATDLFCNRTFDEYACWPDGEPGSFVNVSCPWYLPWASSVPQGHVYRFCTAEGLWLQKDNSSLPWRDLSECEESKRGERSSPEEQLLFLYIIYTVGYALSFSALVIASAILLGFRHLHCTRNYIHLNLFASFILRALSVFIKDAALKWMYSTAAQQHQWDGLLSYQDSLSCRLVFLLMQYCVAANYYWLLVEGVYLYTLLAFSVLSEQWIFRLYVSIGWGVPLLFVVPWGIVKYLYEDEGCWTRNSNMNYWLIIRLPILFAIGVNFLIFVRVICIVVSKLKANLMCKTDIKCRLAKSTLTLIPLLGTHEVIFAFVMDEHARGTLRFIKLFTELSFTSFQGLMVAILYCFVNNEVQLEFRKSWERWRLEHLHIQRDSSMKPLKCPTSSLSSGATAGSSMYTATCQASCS

Turning to `CC[C@H](C)[C@H](NC(=O)[C@H](CC(C)C)NC(=O)[C@H](Cc1c[nH]c2ccccc12)NC(=O)[C@H](CCC(N)=O)NC(=O)[C@@H](NC(=O)[C@H](Cc1ccccc1)NC(=O)[C@H](C)NC(=O)[C@H](CCCCNC(=O)COCCOCCNC(=O)COCCOCCNC(=O)CC[C@H](NC(=O)CCCCCCCCCCCCCCCCCCC(=O)O)C(=O)O)NC(=O)[C@H](CCC(N)=O)NC(=O)[C@H](C)NC(=O)[C@@H](NC(=O)[C@H](CCCCN)NC(=O)[C@H](CC(=O)O)NC(=O)[C@H](CC(C)C)NC(=O)C(C)(C)NC(=O)[C@@H](NC(=O)[C@H](CO)NC(=O)[C@H](Cc1ccc(O)cc1)NC(=O)[C@H](CC(=O)O)NC(=O)[C@H](CO)NC(=O)[C@@H](NC(=O)[C@H](Cc1ccccc1)NC(=O)[C@@H](NC(=O)CNC(=O)[C@H](CCC(=O)O)NC(=O)CCNC(=O)C(C)(C)c1cc(F)cc(C#N)c1)[C@@H](C)O)[C@@H](C)O)[C@@H](C)CC)[C@@H](C)CC)C(C)C)C(=O)N[C@@H](C)C(=O)NCC(=O)NCC(=O)N1CCC[C@H]1C(=O)N[C@@H](CO)C(=O)N[C@@H](CO)C(=O)NCC(=O)N[C@@H](C)C(=O)N1CCC[C@H]1C(=O)N1CCC[C@H]1C(=O)N1CCC[C@H]1C(=O)N[C@@H](CO)C(N)=O` [CT-388] ({Isobutyryl(2-(3-CN-5-F-Ph))-βAla}-EGTFTSDYSI[Aib]LDKIAQK([AEEA-AEEA-γGlu-C20 diacid])AFVQWLIAGGPSSGAPPPS-NH2), the Emax (commonly the greatest response seen or fitted, relative to the assay's reference) is 4% at human GLP-1R [1]; 92% on human GIPR [2]; 28% on human GIPR [4]; 99% on human GLP-1R [5]; 6% on human GLP-1R [6]. In addition, in series [3], the Vd/F was determined as 11.4 L.
